These results are taken from patent US20070135470A1, “Utilization of vinpocetine to avoid complications in particular those associated to hearing which occur with epilepsy, and treatment thereof” (UNIVERSIDAD NACIONAL AUTONOMA DE MEXICO, priority 2003, published 2007).

Type in all cases: in vivo, guinea pig
For test [1], the system named is epileptic cortical activity induced by 4-AP in guinea pigs. As to the kind of experiment: EEG recordings of cortical activity in 4-AP-induced epilepsy. The following applies: 4-AP 2 mg/kg i.p. How it is done:
(§1) Experiments were performed in pigmented adult male guinea pigs initially weighing 349±38 g. ABRs recordings were used to evaluate the hearing status of each animal and EEG recordings to evaluate changes in cortical excitability. The ABR and EEG recordings were obtained following a method that we have previously reported (Nekrassov and Sitges, 2003). The Institutional Animal Use and Care Committee approved all experimental procedures.
(§2) Three types of recordings were performed in the anaesthetized animals, namely the ABR recordings elicited by a stimulus of high intensity (100 dB), the ABR recordings for determination of the auditory threshold and the EEG recordings.
(§3) Five guinea pigs were entered into the study. One hour after injecting guinea pigs with vehicle (acidified saline used to dissolve vinpocetine) the animals were anaesthetized and a first set of ABR and EEG recordings was taken before the injection (i.p) of the convulsing agent, 4-AP. The animals were injected with 4-AP (2 mg/kg) and about 20 min after injecting 4-AP (ictal period) the EEG recording was taken. Then the other series of ABR and EEG recordings were taken at specific times within the post-ictal period. After two weeks the same series of recordings were repeated but instead vehicle the animals were injected with vinpocetine (2 mg/kg) 1 hour before the injection of 4-AP.
Vinpocetine inhibits all the changes induced by 4-AP on the EEG. […] This change on the cortical activity elicited by 4-AP for the ictal period is followed by the post-ictal period characterized by isolated spikes of higher amplitude that appear on the EEG about one hour after the injection of 4-AP. […] The top traces of FIG. 6 show the characteristic EEG recordings taken before the injection of 4-AP in the animals pre-injected with vehicle (a) and in the animals pre-injected with vinpocetine (b). The changes induced by 4-AP on for the ictal period are shown in the second trace on FIG. 6a. In the vinpocetine treated animals 4-AP was unable to induce the ictal activity (second trace on FIG. 6b).

In test [2] the test system is hearing loss induced by 4-AP in guinea pigs. As to the kind of experiment: ABR (auditory) threshold in 4-AP-induced epilepsy. The following applies: vinpocetine 2 mg/kg or vehicle 1 h before 4-AP. How it is done:
as §1, §2
(§4) Determination of ABR thresholds. ABR recordings elicited by stimuli of progressively lower intensity (in dB) were used for determining the hearing threshold. Threshold is defined as the lowest stimulus intensity (in dB) at which the P3 wave of the ABR could still be recorded in three consecutive trials.
(§5) Student's t-test was used for the evaluation of the differences between results obtained before and at the specified times after the injection of the convulsing agents. The criterion for statistical significance for all measures was P≦0.05. All data are expressed as means±standard error of the mean. In figures and tables the symbol * is used for indicating statistic significant differences.
as §3

For test [3], the system named is epilepsy induced by 4-AP in guinea pigs. Nature of the test: ABR wave parameters (amplitude, latency) in 4-AP-induced epilepsy. The following applies: 100 dB, vinpocetine 2 mg/kg or vehicle 1 h before 4-AP. How it is done:
as §1, §2
(§6) Determination of ABR wave parameters. The latency and amplitude of each wave component of the ABR elicited by a stimulus of 100 dB with pure tone frequencies of 4 and 8 kHz was measured in all the ABR recordings obtained under the different experimental conditions at the specified times. The latency of each ABR wave (in ms) refers to the time interval between the onset of the auditory stimulus and the positive peak of the wave. The onset of the stimulus is indicated by the vertical arrow at the bottom of the recordings on FIG. 1. The peak amplitude (in μV) of each wave of the ABR is the difference between the positive peak of the wave and the reference baseline (trace between the stimulus and the appearance of the first ABR wave on FIG. 1).
as §5, §3

Test [4] concerns epilepsy induced by PTZ in guinea pigs. Nature of the test: ABR wave parameters (amplitude, latency) in PTZ-induced epilepsy. The following applies: 100 dB, vinpocetine 2 mg/kg or vehicle 4 h before PTZ. How it is done:
as §1, §2, §6, §5
(§7) Eight male guinea pigs were entered into this study. PTZ was dissolved in saline and vinpocetine in a saline acidified (with HCl) adjusted to pH 4 (with NaOH). Four hours after injecting guinea pigs with vehicle (acidified saline used to dissolve vinpocetine) the animals were anaesthetized and a first set of ABR and EEG recordings was taken before the injection (i.p) of the convulsing agent, PTZ. The animals were injected with PTZ (100 mg/kg) and about 2 min after injecting PTZ (ictal period) the EEG recording was taken. Then the other series of ABR and EEG recordings were taken at specific times within the post-ictal period. After two weeks the same series of recordings was taken but instead vehicle the animals were injected with vinpocetine (2 mg/kg) 4 hours before the injection of PTZ.

Test [5] has as its system hearing loss induced by PTZ in guinea pigs. Nature of the test: ABR (auditory) threshold in PTZ-induced epilepsy. The following applies: vinpocetine 2 mg/kg or vehicle 4 h before PTZ. How it is done: as §1, §2, §4, §5, §7
The test system of test [6] is epileptic cortical activity induced by PTZ in guinea pigs. As to the kind of experiment: EEG recordings of cortical activity in PTZ-induced epilepsy. The following applies: PTZ 100 mg/kg i.p. How it is done:
as §1, §2, §7
Vinpocetine inhibits all the changes induced by PTZ on the EEG. […] This dramatic change on the cortical activity induced by PTZ in the anaesthetized animals during convulsions is followed by a typical pattern of cortical activity characterized by rhythmic spike bursts of high amplitude. The duration time of this typical pattern of cortical activity, that is not accompanied by convulsions is referred as the post-ictal period.

[7] abbreviates: animals pre-injected with vehicle.
[8] abbreviates: 4 kHz, 30 min after 4-AP 2 mg/kg i.p.
Setting [9] is: 4 kHz, 60 min after 4-AP 2 mg/kg i.p.
Setting [10] is: 8 kHz, 30 min after 4-AP 2 mg/kg i.p.
[11] abbreviates: 8 kHz, 60 min after 4-AP 2 mg/kg i.p.
Setting [12] is: 4 kHz, 30 min after PTZ 100 mg/kg i.p.
Setting [13] is: 4 kHz, 50 min after PTZ 100 mg/kg i.p.
Where [14] appears, read: 8 kHz, 30 min after PTZ 100 mg/kg i.p.
Setting [15] is: 8 kHz, 50 min after PTZ 100 mg/kg i.p.

`Nc1ccncc1` [4-AP, 4-aminopyridine]: the “time of appearance of seizure (spike-sharp wave) activity in the EEG after injection” value in test [1] is given as “about 20 min”. Further, the “seizure induction in anaesthetized animals” value in test [1] (setting [7]) is “developed generalized seizures”. In addition, the auditory threshold in test [2] (setting [8]) was 20 ± 2.0 * dB; in test [2] (setting [9]) it was 30 ± 3.5 * dB; in test [2] (setting [10]), 10.0 ± 2.0 * dB; in test [2] (setting [11]) it was 23.8 ± 6.3 * dB. Also, the “latency of the P4 wave of the ABR” value is 3.78 ± 0.09 * ms in test [3] (setting [8]); 3.78 ± 0.09 * ms in test [3] (setting [9]); 3.78 ± 0.09 * ms in test [3] (4 kHz, 80 min after 4-AP 2 mg/kg i.p.); 3.75 ± 0.10 * ms in test [3] (4 kHz, 100 min after 4-AP 2 mg/kg i.p.); 3.51 ± 0.13 ms in test [3] (setting [10]); 3.80 ± 0.10 * ms in test [3] (setting [11]). Moreover, the “latency of the P4 wave of the ABR” value in test [3] (8 kHz, 80 min after 4-AP 2 mg/kg i.p.) is 3.80 ± 0.10 * ms; in test [3] (8 kHz, 100 min after 4-AP 2 mg/kg i.p.), 3.83 ± 0.12 * ms.
As to `C1CCc2nnnn2CC1` [PTZ, pentylenetetrazole], the “P4 wave peak amplitude of the ABR” value in test [4] (4 kHz, 10 min after PTZ 100 mg/kg i.p.) is recorded as 1.70 ± 0.5 * μV; in test [4] (4 kHz, 20 min after PTZ 100 mg/kg i.p.), 2.12 ± 0.4 * μV; in test [4] (setting [12]), 1.84 ± 0.4 * μV; in test [4] (setting [13]), 2.11 ± 0.3 * μV; in test [4] (8 kHz, 10 min after PTZ 100 mg/kg i.p.) it was 2.07 ± 0.4 * μV; in test [4] (8 kHz, 20 min after PTZ 100 mg/kg i.p.), 1.99 ± 0.3 * μV. The “P4 wave peak amplitude of the ABR” value in test [4] (setting [14]) was 1.92 ± 0.3 * μV; in test [4] (setting [15]), 1.51 ± 0.5 * μV. Further, the auditory threshold in test [5] (setting [12]) was 28 ± 2.0 * dB; in test [5] (setting [13]) it was 29 ± 1.0 * dB; in test [5] (setting [14]) it was 17 ± 2.0 * dB; in test [5] (setting [15]) it was 21 ± 2.4 * dB. In test [6], the “onset of seizure activity in the EEG after injection” value is given as “within the two first min”. In addition, the “seizure induction in anaesthetized animals” value in test [6] (setting [7]) is “developed generalized seizures”.
